{"source": "patent US20260263429A1", "about": "“INHIBITORS OF CA 2+/CALMODULIN-DEPENDENT PROTEIN KINASE II (CAMKII) THAT DO NOT INHIBIT LONG-TERM POTENTIATION (LTP) INDUCTION AND THERAPEUTIC USES THEREOF” (The Regents of the University of Colorado, A Body Corporate, priority 2023, published 2026)", "key": {"GSK3α(h)": {"target": "GSK3α(h) (Homo sapiens, UniProt P49840)", "sequence (P49840 whole entry)": "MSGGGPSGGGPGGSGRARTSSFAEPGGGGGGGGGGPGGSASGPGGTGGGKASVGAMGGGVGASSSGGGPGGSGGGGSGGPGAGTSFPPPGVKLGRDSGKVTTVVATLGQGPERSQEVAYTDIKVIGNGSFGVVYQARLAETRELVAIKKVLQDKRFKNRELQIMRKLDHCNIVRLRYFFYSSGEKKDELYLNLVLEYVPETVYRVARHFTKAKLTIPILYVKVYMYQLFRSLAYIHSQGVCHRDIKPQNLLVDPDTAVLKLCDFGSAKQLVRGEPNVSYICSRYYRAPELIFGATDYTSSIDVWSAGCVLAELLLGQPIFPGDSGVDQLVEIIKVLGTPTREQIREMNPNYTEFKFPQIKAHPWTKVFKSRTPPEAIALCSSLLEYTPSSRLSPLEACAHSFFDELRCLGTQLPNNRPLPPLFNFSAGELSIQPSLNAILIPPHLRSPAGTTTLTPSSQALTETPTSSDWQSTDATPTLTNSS", "experiment": "Kinase panel, residual kinase activity at 1 μM inhibitor", "type": "biochemical", "experimental": "(§1) In this table, residual kinase activity in the presence of 1 μM of each inhibitor is illustrated as a percentage of maximal activity."}, "CDK2/cyclinE(h)": {"target": "CDK2/cyclinE(h) (Homo sapiens, UniProt P24941)", "experiment": "Kinase panel, residual kinase activity at 1 μM inhibitor", "type": "biochemical", "experimental": "as §1"}, "FAK(h)": {"target": "FAK(h) (Homo sapiens, UniProt Q05397)", "experiment": "Kinase panel, residual kinase activity at 1 μM inhibitor", "type": "biochemical", "experimental": "as §1"}, "MAPK1(h)": {"target": "MAPK1(h) (Homo sapiens, UniProt P27361)", "experiment": "Kinase panel, residual kinase activity at 1 μM inhibitor", "type": "biochemical", "experimental": "as §1"}, "[1]": {"target": "PI3 Kinase (p110a/p85a)(h) (Homo sapiens, UniProt P42336)", "experiment": "Kinase panel, residual kinase activity at 1 μM inhibitor", "type": "biochemical", "experimental": "as §1"}, "CaMKIIδ(h)": {"target": "CaMKIIδ(h) (Homo sapiens, UniProt Q13557)", "experiment": "Kinase panel, residual kinase activity at 1 μM inhibitor", "type": "biochemical", "experimental": "as §1"}, "JAK3(h)": {"target": "JAK3(h) (Homo sapiens, UniProt P52333)", "sequence (P52333 whole entry)": "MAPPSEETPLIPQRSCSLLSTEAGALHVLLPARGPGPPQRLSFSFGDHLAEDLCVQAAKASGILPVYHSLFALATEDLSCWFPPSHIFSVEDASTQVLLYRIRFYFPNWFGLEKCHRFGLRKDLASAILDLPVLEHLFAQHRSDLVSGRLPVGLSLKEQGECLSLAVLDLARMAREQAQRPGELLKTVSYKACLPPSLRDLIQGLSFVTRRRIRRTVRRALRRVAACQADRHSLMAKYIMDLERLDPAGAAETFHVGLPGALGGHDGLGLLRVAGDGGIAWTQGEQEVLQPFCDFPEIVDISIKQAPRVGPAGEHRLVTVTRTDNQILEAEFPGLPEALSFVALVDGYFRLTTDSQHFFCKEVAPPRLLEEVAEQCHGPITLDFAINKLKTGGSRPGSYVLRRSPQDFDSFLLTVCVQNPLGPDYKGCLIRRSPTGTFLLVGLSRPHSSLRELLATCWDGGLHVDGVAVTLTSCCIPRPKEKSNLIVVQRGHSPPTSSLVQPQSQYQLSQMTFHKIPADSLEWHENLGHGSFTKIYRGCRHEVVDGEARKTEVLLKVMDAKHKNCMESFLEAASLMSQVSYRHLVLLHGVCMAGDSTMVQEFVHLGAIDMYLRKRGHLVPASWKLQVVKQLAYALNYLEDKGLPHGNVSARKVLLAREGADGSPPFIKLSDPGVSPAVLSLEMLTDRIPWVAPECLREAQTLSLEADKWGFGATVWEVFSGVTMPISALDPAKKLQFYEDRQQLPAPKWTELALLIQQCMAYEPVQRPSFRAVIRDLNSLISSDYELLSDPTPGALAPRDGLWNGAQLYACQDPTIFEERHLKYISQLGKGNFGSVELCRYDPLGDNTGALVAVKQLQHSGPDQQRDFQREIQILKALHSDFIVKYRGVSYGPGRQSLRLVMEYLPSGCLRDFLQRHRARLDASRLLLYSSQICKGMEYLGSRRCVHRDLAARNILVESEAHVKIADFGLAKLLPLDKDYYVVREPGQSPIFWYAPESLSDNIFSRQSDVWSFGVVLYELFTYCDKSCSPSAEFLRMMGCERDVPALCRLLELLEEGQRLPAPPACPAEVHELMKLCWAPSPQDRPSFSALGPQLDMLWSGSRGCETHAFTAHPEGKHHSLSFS", "experiment": "Kinase panel, residual kinase activity at 1 μM inhibitor", "type": "biochemical", "experimental": "as §1"}, "ROCK-II(h)": {"target": "ROCK-II(h) (Homo sapiens, UniProt O75116)", "experiment": "Kinase panel, residual kinase activity at 1 μM inhibitor", "type": "biochemical", "experimental": "as §1"}, "CaMKIIα(h)": {"target": "CaMKIIα(h) (Homo sapiens, UniProt Q9UQM7)", "experiment": "Kinase panel, residual kinase activity at 1 μM inhibitor", "type": "biochemical", "experimental": "as §1"}, "GSK3β(h)": {"target": "GSK3β(h) (Homo sapiens, UniProt P49841)", "experiment": "Kinase panel, residual kinase activity at 1 μM inhibitor", "type": "biochemical", "experimental": "as §1"}, "CaMKIIβ(h)": {"target": "CaMKIIβ(h) (Homo sapiens, UniProt Q13554)", "sequence (Q13554 whole entry)": "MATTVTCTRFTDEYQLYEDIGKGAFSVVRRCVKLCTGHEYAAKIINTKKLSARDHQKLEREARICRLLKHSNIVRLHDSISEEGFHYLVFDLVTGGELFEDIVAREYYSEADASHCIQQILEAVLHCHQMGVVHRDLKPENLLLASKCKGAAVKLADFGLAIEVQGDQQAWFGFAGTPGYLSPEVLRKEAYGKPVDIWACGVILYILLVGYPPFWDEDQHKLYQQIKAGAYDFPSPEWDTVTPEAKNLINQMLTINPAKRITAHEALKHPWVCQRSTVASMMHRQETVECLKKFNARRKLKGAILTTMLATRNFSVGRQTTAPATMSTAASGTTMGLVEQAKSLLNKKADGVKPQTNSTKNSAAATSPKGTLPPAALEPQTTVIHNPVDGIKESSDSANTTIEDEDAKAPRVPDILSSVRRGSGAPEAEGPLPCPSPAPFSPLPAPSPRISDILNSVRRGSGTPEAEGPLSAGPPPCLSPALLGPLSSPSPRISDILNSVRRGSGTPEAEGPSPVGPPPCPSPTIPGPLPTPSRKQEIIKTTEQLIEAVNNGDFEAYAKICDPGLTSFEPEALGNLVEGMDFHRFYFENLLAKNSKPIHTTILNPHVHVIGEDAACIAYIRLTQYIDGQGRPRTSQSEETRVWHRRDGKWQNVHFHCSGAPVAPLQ", "experiment": "Kinase panel, residual kinase activity at 1 μM inhibitor", "type": "biochemical", "experimental": "as §1"}, "Ret(h)": {"target": "Ret(h) (Homo sapiens, UniProt P07949)", "experiment": "Kinase panel, residual kinase activity at 1 μM inhibitor", "type": "biochemical", "experimental": "as §1"}, "CaMKIIγ(h)": {"target": "CaMKIIγ(h) (Homo sapiens, UniProt Q13555)", "experiment": "Kinase panel, residual kinase activity at 1 μM inhibitor", "type": "biochemical", "experimental": "as §1"}, "Arg(h)": {"target": "Arg(h) (Homo sapiens, UniProt P42684)", "sequence (P42684 whole entry)": "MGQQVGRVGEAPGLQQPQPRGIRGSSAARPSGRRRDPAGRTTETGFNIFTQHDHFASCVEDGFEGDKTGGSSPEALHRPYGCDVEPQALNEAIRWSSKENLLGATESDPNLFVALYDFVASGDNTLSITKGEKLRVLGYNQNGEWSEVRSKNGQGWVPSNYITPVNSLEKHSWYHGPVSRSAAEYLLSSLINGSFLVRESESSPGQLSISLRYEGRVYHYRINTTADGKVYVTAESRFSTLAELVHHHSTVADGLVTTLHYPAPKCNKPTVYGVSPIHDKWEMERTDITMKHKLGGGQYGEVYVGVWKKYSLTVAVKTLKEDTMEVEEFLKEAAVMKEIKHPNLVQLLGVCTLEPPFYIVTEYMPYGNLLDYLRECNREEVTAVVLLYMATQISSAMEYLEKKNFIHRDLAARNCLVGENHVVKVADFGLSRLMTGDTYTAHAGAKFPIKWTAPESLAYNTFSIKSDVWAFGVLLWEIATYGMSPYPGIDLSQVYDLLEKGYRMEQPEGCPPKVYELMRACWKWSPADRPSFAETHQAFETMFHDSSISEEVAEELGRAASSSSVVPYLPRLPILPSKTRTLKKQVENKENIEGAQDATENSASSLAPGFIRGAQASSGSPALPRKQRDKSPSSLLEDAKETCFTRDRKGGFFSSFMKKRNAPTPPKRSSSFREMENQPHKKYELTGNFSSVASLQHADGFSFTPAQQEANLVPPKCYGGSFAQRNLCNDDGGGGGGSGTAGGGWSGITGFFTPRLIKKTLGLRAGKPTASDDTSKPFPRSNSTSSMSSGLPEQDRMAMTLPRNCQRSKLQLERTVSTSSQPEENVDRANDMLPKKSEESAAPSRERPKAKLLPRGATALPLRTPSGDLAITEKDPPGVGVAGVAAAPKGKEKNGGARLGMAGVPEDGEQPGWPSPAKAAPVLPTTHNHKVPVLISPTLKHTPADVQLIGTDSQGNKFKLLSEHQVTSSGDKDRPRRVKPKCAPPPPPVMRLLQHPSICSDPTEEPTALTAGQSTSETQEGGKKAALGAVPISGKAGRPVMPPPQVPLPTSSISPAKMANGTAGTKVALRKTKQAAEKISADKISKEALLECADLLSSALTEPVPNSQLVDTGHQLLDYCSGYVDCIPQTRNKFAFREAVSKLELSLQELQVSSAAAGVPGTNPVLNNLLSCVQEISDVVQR", "experiment": "Kinase panel, residual kinase activity at 1 μM inhibitor", "type": "biochemical", "experimental": "as §1"}, "CDK5/p35(h)": {"target": "CDK5/p35(h) (Homo sapiens, UniProt Q00535)", "experiment": "Kinase panel, residual kinase activity at 1 μM inhibitor", "type": "biochemical", "experimental": "as §1"}, "MAPK2(h)": {"target": "MAPK2(h) (Homo sapiens, UniProt P28482)", "experiment": "Kinase panel, residual kinase activity at 1 μM inhibitor", "type": "biochemical", "experimental": "as §1"}, "CaMKIV(h)": {"target": "CaMKIV(h) (Homo sapiens, UniProt Q16566)", "experiment": "Kinase panel, residual kinase activity at 1 μM inhibitor", "type": "biochemical", "experimental": "as §1"}, "PKBγ(h)": {"target": "PKBγ(h) (Homo sapiens, UniProt Q9Y243)", "experiment": "Kinase panel, residual kinase activity at 1 μM inhibitor", "type": "biochemical", "experimental": "as §1"}, "IGF-1R(h)": {"target": "IGF-1R(h) (Homo sapiens, UniProt P08069)", "experiment": "Kinase panel, residual kinase activity at 1 μM inhibitor", "type": "biochemical", "experimental": "as §1"}, "PKG1β(h)": {"target": "PKG1β(h) (Homo sapiens, UniProt Q13976)", "experiment": "Kinase panel, residual kinase activity at 1 μM inhibitor", "type": "biochemical", "experimental": "as §1"}, "p70S6K(h)": {"target": "p70S6K(h) (Homo sapiens, UniProt P23443)", "experiment": "Kinase panel, residual kinase activity at 1 μM inhibitor", "type": "biochemical", "experimental": "as §1"}, "cKit(h)": {"target": "cKit(h) (Homo sapiens, UniProt P10721)", "experiment": "Kinase panel, residual kinase activity at 1 μM inhibitor", "type": "biochemical", "experimental": "as §1"}, "AMPKα1(h)": {"target": "AMPKα1(h) (Homo sapiens, UniProt Q13131)", "experiment": "Kinase panel, residual kinase activity at 1 μM inhibitor", "type": "biochemical", "experimental": "as §1"}, "PDGFRβ(h)": {"target": "PDGFRβ(h) (Homo sapiens, UniProt P09619)", "experiment": "Kinase panel, residual kinase activity at 1 μM inhibitor", "type": "biochemical", "experimental": "as §1"}, "Aurora-C(h)": {"target": "Aurora-C(h) (Homo sapiens, UniProt Q9UQB9)", "experiment": "Kinase panel, residual kinase activity at 1 μM inhibitor", "type": "biochemical", "experimental": "as §1"}, "Flt3(h)": {"target": "Flt3(h) (Homo sapiens, UniProt P36888)", "sequence (P36888 27-993)": "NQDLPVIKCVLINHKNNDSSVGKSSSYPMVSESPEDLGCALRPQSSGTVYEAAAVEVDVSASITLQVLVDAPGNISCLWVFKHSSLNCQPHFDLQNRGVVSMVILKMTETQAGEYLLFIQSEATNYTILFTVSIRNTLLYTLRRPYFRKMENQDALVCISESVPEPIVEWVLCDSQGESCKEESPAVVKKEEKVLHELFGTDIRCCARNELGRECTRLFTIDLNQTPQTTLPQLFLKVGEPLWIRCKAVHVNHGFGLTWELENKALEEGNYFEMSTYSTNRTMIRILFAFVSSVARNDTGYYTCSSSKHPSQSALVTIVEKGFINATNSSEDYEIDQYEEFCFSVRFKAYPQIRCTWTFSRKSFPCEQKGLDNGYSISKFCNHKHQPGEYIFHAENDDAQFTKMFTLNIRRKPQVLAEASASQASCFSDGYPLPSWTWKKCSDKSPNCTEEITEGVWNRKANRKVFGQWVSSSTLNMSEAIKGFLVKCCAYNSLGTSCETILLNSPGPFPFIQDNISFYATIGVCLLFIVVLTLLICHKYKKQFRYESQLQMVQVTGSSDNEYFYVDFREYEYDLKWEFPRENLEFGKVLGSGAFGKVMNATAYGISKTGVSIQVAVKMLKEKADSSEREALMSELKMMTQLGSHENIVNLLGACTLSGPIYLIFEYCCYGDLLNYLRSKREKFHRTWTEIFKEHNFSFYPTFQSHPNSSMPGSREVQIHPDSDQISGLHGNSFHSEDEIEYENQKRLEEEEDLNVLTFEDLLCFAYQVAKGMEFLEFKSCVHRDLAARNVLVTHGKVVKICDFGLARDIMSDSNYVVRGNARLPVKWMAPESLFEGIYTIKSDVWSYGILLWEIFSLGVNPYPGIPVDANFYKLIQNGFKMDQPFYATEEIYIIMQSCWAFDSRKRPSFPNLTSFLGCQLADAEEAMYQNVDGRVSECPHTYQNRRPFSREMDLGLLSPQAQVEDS", "experiment": "Kinase panel, residual kinase activity at 1 μM inhibitor", "type": "biochemical", "experimental": "as §1"}, "PDK1(h)": {"target": "PDK1(h) (Homo sapiens, UniProt O15530)", "sequence (O15530 whole entry)": "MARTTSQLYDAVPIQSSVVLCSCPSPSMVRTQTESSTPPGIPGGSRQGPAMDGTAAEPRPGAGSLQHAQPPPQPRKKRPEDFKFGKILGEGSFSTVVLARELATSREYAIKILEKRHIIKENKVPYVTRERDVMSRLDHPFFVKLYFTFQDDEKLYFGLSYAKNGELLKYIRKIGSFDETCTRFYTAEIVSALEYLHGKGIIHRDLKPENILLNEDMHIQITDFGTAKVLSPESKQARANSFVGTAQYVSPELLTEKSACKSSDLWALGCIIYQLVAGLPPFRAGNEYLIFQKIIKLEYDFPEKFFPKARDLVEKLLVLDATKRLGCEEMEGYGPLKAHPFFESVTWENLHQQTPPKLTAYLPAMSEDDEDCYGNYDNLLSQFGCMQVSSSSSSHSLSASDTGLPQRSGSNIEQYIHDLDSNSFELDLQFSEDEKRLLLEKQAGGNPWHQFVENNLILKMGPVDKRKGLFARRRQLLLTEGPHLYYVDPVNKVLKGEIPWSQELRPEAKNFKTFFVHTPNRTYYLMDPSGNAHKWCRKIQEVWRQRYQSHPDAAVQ", "experiment": "Kinase panel, residual kinase activity at 1 μM inhibitor", "type": "biochemical", "experimental": "as §1"}, "[2]": {"target": "T1, CaMKII/GluN2B co-localization in HEK293 cells (Homo sapiens, UniProt Q9UQM7)", "T1 construct": "expressed in transfected cells; host or cells: HEK293 cells", "experiment": "Ionomycin-induced co-localization of GFP-CaMKII and mCherry-2BC in HEK293 cells", "type": "cell-based", "conditions": "10 μM inhibitor", "experimental": "In a series of exemplary methods, an in vitro kinase assay was used where purified CaMKIIα is incubated at 30° C. with GST-GluA1 alongside ATP. CaMKIIα normally phosphorylates S831 on the GluA1 subunit and this phosphorylation can be measured as a readout of CaMKIIα enzymatic activity (see e.g., FIG. 8B). […] In another exemplary method, binding of purified CaMKIIα to immobilized GST-GluN2B-c was induced by Ca^2+/CaM in the presence of a vehicle (none), 4 mM ADP or with […] AS105. […] At the same time, two exemplary methods were performed to observe ionomycin or chemical LTP (cLTP) induced co-localization of CaMKII and GluN2B either in HEK293 cells co-expressing GFP-CaMKII and mCherry-2BC or dissociated rat hippocampal cultures expressing GFP-CaMKII and mCh-PSD95 intrabody. HEK293 cells, incubating with vehicle or 10 μM AS105, were subjected to ionomycin. Hippocampal cultures, also incubating with either vehicle or 10 μM AS105, were treated with a chemical LTP (cLTP) stimulus (e.g., 100 μM glutamate, 10 μM glycine for 45 seconds). Confocal microscopy images were taken before and after each stimulus."}, "[3]": {"system": "GFP-CaMKII synaptic enrichment (mCh-PSD95 intrabody)", "experiment": "cLTP-induced CaMKII movement to excitatory synapses in dissociated rat hippocampal cultures", "type": "cell-based", "conditions": "10 μM inhibitor; cLTP 100 μM glutamate, 10 μM glycine, 45 seconds"}}}
{"compound": "NCCNc1cccc(-c2ccnc3[nH]c4ccccc4c23)c1", "note": "[AS283]", "values": [{"measurement": "residual kinase activity, GSK3α(h)", "setting": "GSK3α(h)", "value": "82 percentage of maximal activity"}, {"measurement": "residual kinase activity, CDK2/cyclinE(h)", "setting": "CDK2/cyclinE(h)", "value": "41 percentage of maximal activity"}, {"measurement": "residual kinase activity, FAK(h)", "setting": "FAK(h)", "value": "68 percentage of maximal activity"}, {"measurement": "residual kinase activity, MAPK1(h)", "setting": "MAPK1(h)", "value": "102 percentage of maximal activity"}, {"measurement": "residual kinase activity, PI3 Kinase (p110a/p85a)(h)", "setting": "[1]", "value": "100 percentage of maximal activity"}, {"measurement": "residual kinase activity, CaMKIIδ(h)", "setting": "CaMKIIδ(h)", "value": "2 percentage of maximal activity"}, {"measurement": "residual kinase activity, JAK3(h)", "setting": "JAK3(h)", "value": "92 percentage of maximal activity"}, {"measurement": "residual kinase activity, ROCK-II(h)", "setting": "ROCK-II(h)", "value": "77 percentage of maximal activity"}, {"measurement": "residual kinase activity, CaMKIIα(h)", "setting": "CaMKIIα(h)", "value": "3 percentage of maximal activity"}, {"measurement": "residual kinase activity, GSK3β(h)", "setting": "GSK3β(h)", "value": "87 percentage of maximal activity"}, {"measurement": "residual kinase activity, CaMKIIβ(h)", "setting": "CaMKIIβ(h)", "value": "5 percentage of maximal activity"}, {"measurement": "residual kinase activity, Ret(h)", "setting": "Ret(h)", "value": "44 percentage of maximal activity"}, {"measurement": "residual kinase activity, CaMKIIγ(h)", "setting": "CaMKIIγ(h)", "value": "2 percentage of maximal activity"}, {"measurement": "residual kinase activity, Arg(h)", "setting": "Arg(h)", "value": "96 percentage of maximal activity"}, {"measurement": "residual kinase activity, CDK5/p35(h)", "setting": "CDK5/p35(h)", "value": "33 percentage of maximal activity"}, {"measurement": "residual kinase activity, MAPK2(h)", "setting": "MAPK2(h)", "value": "97 percentage of maximal activity"}, {"measurement": "residual kinase activity, CaMKIV(h)", "setting": "CaMKIV(h)", "value": "90 percentage of maximal activity"}, {"measurement": "residual kinase activity, PKBγ(h)", "setting": "PKBγ(h)", "value": "42 percentage of maximal activity"}, {"measurement": "residual kinase activity, IGF-1R(h)", "setting": "IGF-1R(h)", "value": "110 percentage of maximal activity"}, {"measurement": "residual kinase activity, PKG1β(h)", "setting": "PKG1β(h)", "value": "38 percentage of maximal activity"}, {"measurement": "residual kinase activity, p70S6K(h)", "setting": "p70S6K(h)", "value": "18 percentage of maximal activity"}, {"measurement": "residual kinase activity, cKit(h)", "setting": "cKit(h)", "value": "50 percentage of maximal activity"}, {"measurement": "residual kinase activity, AMPKα1(h)", "setting": "AMPKα1(h)", "value": "70 percentage of maximal activity"}, {"measurement": "residual kinase activity, PDGFRβ(h)", "setting": "PDGFRβ(h)", "value": "111 percentage of maximal activity"}, {"measurement": "residual kinase activity, Aurora-C(h)", "setting": "Aurora-C(h)", "value": "63 percentage of maximal activity"}, {"measurement": "residual kinase activity, Flt3(h)", "setting": "Flt3(h)", "value": "3 percentage of maximal activity"}, {"measurement": "residual kinase activity, PDK1(h)", "setting": "PDK1(h)", "value": "78 percentage of maximal activity"}, {"measurement": "ionomycin-induced CaMKII/GluN2B co-localization in HEK293 cells", "setting": "[2]", "value": "failed to inhibit CaMKII binding to GluN2B"}, {"measurement": "cLTP-induced CaMKII co-localization/movement to excitatory synapses in hippocampal neurons", "setting": "[3]", "value": "failed to inhibit CaMKII binding to GluN2B"}]}
